The source of these data is patent publication US10208021B2, “Substituted tetrahydroisoquinoline compounds as factor XIa inhibitors” (BRISTOL-MYERS SQUIBB COMPANY, priority 2011, dated 2019).

The test concerns the target purified human Factor XIa (Homo sapiens (Human), UniProt P03951). The test is described as follows: Factor XIa chromogenic substrate (S-2366) inhibition assay. The format is biochemical. The protocol: The effectiveness of compounds of the present invention as inhibitors of the coagulation factors XIa, VIIa, IXa, Xa, XIIa, plasma kallikrein or thrombin, can be determined using a relevant purified serine protease, respectively, and an appropriate synthetic substrate. The rate of hydrolysis of the chromogenic or fluorogenic substrate by the relevant serine protease was measured both in the absence and presence of compounds of the present invention. […] A decrease in the rate of absorbance or fluorescence change in the presence of inhibitor is indicative of enzyme inhibition. Such methods are known to one skilled in the art. The results of this assay are expressed as the inhibitory constant, Ki. […] JT Baker or Fisher Scientific). […] Values of Ki were determined by allowing the protease to react with the substrate in the presence of the inhibitor. Reactions were allowed to go for periods of 20-180 minutes (depending on the protease) and the velocities (rate of absorbance or fluorescence change versus time) were measured.

[1] abbreviates: substrate S-2366, activity ranges, Table A.

pKi: −log10 of the molar value. Structures can show the parent of a compound that is named as a salt.

Sequence of purified human Factor XIa (P03951 388-625): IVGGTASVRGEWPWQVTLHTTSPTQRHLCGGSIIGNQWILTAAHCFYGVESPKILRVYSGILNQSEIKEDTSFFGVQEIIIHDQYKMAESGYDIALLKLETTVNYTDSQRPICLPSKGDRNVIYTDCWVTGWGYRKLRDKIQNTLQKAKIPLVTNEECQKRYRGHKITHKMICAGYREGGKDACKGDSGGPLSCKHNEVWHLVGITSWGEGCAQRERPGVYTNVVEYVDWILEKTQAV
Sequence of purified human Factor XIa (P03951 19-387 partner): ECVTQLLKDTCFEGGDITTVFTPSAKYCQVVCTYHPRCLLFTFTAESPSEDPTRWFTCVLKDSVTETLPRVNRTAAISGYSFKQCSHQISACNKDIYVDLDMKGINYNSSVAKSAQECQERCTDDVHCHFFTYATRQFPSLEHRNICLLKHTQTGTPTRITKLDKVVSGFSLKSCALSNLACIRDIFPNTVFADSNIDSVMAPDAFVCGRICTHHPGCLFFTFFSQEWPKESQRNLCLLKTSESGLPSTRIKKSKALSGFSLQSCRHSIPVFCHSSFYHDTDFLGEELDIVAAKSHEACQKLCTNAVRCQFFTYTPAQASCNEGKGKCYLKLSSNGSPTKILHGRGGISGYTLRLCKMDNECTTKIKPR

The pKi is the negative decadic logarithm of the Ki, by convention in mol/L. `COC(=O)c1ccc(NC(=O)[C@@H]2c3cccc(N4CCC5(CC4)OCCO5)c3CCN2C(=O)/C=C/c2c(-n3cnnn3)ccc(Cl)c2F)cc1` [Example 144] had a pKi under setting [1] greater than 8.30.

For `O=C(O)c1ccc(NC(=O)C2c3cccc(N4CCC(C(=O)N5CCCC5)CC4)c3CCN2C(=O)/C=C/c2c(-n3cnnn3)ccc(Cl)c2F)cc1` (racemic) [Example 131], the pKi (substrate S-2366, Table 1) is greater than 8.30.

On to `O=C(O)c1ccc(NC(=O)C2c3cccc(N4CCC(N5CCCC5)CC4)c3CCN2C(=O)/C=C/c2cc(Cl)ccc2C(F)F)cc1` (racemic) [Example 158], for which the pKi under setting [1] is greater than 8.30.

Regarding `CCOC(=O)c1ccc(NC(=O)C2c3cccc(N4CCCCC4=O)c3CCN2C(=O)/C=C/c2c(-n3cnnn3)ccc(Cl)c2F)cc1` (racemic) [compound 43], the pKi (substrate S-2366, Table 1) is 7.69.

`COC(=O)CNC(=O)c1ccc(NC(=O)C2c3cccc(N4CCNCC4)c3CCN2C(=O)/C=C/c2cc(Cl)c(F)cc2-n2cnnn2)cc1` (racemic) [Example 74]: the pKi under setting [1] is 6.30 to 7.00.

Under setting [1], `CCOC(=O)CCNC(=O)N1CCN(c2cccc3c2CCN(C(=O)/C=C/c2cc(Cl)ccc2-n2cnnn2)C3C(=O)Nc2ccc(C(=O)O)cc2)CC1` (stereo not shown) [Example 21] showed a pKi greater than 8.30.

Molecule `NC(=O)CCNC(=O)c1ccc(NC(=O)C2c3cccc(N4CCNCC4)c3CCN2C(=O)/C=C/c2cc(Cl)c(F)cc2-n2cnnn2)cc1` (racemic) [Example 73] showed a pKi under setting [1] of 5.30 to 6.30.

`CC(C)NC(=O)C1c2cccc(N3CCC(N4CCCC4)CC3)c2CCN1C(=O)/C=C/c1c(-n2cnnn2)ccc(Cl)c1F` (racemic) [Example 240] showed a pKi (substrate S-2366, Table 1) of 7.33.

`COC(=O)N[C@H]1CC[C@H](NC(=O)C2c3cccc(N4CCC(N5CCCC5)CC4)c3CCN2C(=O)/C=C/c2c(-n3cnnn3)ccc(Cl)c2F)CC1` (mixture of isomers) [Example 238] showed a pKi under setting [1] of 8.00 to 8.30.

Under setting [1], `O=C(O)c1ccc(NC(=O)[C@@H]2c3cccc(N4CCC(N5CCOCC5)CC4)c3CCN2C(=O)/C=C/c2c(-n3cnnn3)ccc(Cl)c2F)cc1` [Example 139] had a pKi greater than 8.30.

Consider `CC1(C)Cc2c(cccc2N2CCOCC2)[C@H](C(=O)Nc2ccc(C(=O)O)cc2)N1C(=O)/C=C/c1c(-n2cnnn2)ccc(Cl)c1F` [Example 200], for which the pKi under setting [1] was 6.30 to 7.00.

In turn, `O=C(O)c1ccc(NC(=O)C2c3cccc(N4CCC5(CC4)OCCO5)c3CCN2C(=O)/C=C/c2c(-n3cnnn3)ccc(Cl)c2F)cc1F` (racemic) [Example 255] gave a pKi under setting [1] greater than 8.30.

As to `CN(C)C1CCN(c2cccc3c2CCN(C(=O)/C=C/c2c(C(F)(F)F)ccc(Cl)c2F)C3C(=O)Nc2ccc(C(=O)O)cc2)CC1` (racemic) [Example 223], the pKi under setting [1] is greater than 8.30.

Under setting [1], `CC1(C(=O)N2CCCC2)CCN(c2cccc3c2CCN(C(=O)/C=C/c2c(-n4cnnn4)ccc(Cl)c2F)C3C(=O)Nc2ccc(C(=O)O)cc2)CC1` (racemic) [Example 152] showed a negative-log Ki (pKi) greater than 8.30.

For `O=C(O)c1ccc(NC(=O)C2c3cccc(N4CCC(N5CCCCC5)CC4)c3CCN2C(=O)/C=C/c2c(-n3cnnn3)ccc(Cl)c2F)cc1` (racemic) [Example 115], the pKi under setting [1] is greater than 8.30.

Regarding `CC1(C)Cc2c(cccc2N2CCOCC2)[C@@H](C(=O)Nc2ccc(C(=O)O)cc2)N1C(=O)/C=C/c1c(-n2cnnn2)ccc(Cl)c1F` [Example 199], the pKi under setting [1] was greater than 8.30.

The molecule `CC1(C)Cc2c(cccc2N2CCNCC2)C(C(=O)Nc2ccc(C(=O)O)cc2)N1C(=O)/C=C/c1c(-n2cnnn2)ccc(Cl)c1F` (stereo not shown) [Example 78, (E)-4-(2-(3-(3-chloro-2-fluoro-6-(1H-tetrazol-1-yl)phenyl)acryloyl)-3,3-dimethyl-5-(piperazin-1-yl)-1,2,3,4-tetrahydroisoquinoline-1-carboxamido)benzoic acid, bis-TFA Salt] showed a pKi under setting [1] greater than 8.30.

For the molecule `O=C(O)CCNC(=O)C1c2cccc(N3CCC(N4CCCC4)CC3)c2CCN1C(=O)/C=C/c1c(-n2cnnn2)ccc(Cl)c1F` (racemic) [Example 231], the pKi under setting [1] was 6.30 to 7.00.

Regarding `CCOC(=O)c1ccc(NC(=O)[C@@H]2c3cccc(N4CCCCC4=O)c3CCN2C(=O)/C=C/c2c(-n3cnnn3)ccc(Cl)c2F)cc1` [compound 45], under setting [1], the pKi is 8.00 to 8.30.

Turning to `CN1CCN(c2cccc3c2CCN(C(=O)/C=C/c2c(-n4cnnn4)ccc(Cl)c2F)C3C(=O)Nc2ccc3cn[nH]c3c2)CC1` (stereo not shown) [Example 27], the pKi under setting [1] is greater than 8.30.

The molecule `O=C(O)c1ccc(NC(=O)C2c3cccc(N4CCC(N5CCNCC5)CC4)c3CCN2C(=O)/C=C/c2c(C(F)(F)F)ccc(Cl)c2F)cc1` (racemic) [Example 228] showed a negative logarithm of the Ki (pKi) (substrate S-2366, Table 1) greater than 8.30.

Under setting [1], `CN1CCN(c2cccc3c2CCN(C(=O)C=Cc2c(-n4cnnn4)ccc(Cl)c2F)C3C(=O)Nc2ccc(C(=O)O)cc2)CC1` (stereo not shown) [compound 31] gave a pKi greater than 8.30.

The molecule `COc1ccc(Cl)c(F)c1/C=C/C(=O)N1CCc2c(cccc2N2CCC(N3CCCC3)CC2)C1C(=O)Nc1ccc(C(=O)O)cc1` (racemic) [Example 161] showed a pKi under setting [1] greater than 8.30.

Molecule `CN1CCCN(c2cccc3c2CCN(C(=O)/C=C/c2c(-n4cnnn4)ccc(Cl)c2F)C3C(=O)Nc2ccc(C(=O)O)cc2)CC1` (racemic) [Example 262] showed a pKi under setting [1] greater than 8.30.

In the case of `O=C(O)c1ccc(NC(=O)[C@H]2c3cccc(N4CCCCC4=O)c3CCN2C(=O)/C=C/c2cc(Cl)c(F)cc2-n2cnnn2)cc1` [compound 41], the pKi (substrate S-2366, Table 1) is 5.25.

`O=C(N[C@H]1CC[C@H](C(=O)O)CC1)C1c2cccc(N3CCC(N4CCCC4)CC3)c2CCN1C(=O)/C=C/c1c(-n2cnnn2)ccc(Cl)c1F` (mixture of isomers) [Example 234]: under setting [1], the pKi is 8.00 to 8.30.

For the molecule `COC(=O)c1ccc(NC(=O)C2c3cccc(N4CCC(N5CCCC5)CC4)c3CCN2C(=O)/C=C/c2c(C(C)=O)ccc(Cl)c2F)cc1` (racemic) [Example 175], the pKi (substrate S-2366, Table 1) was greater than 8.30.

The molecule `CC(=O)c1ccc(Cl)c(F)c1/C=C/C(=O)N1CCc2c(cccc2N2CCS(=O)(=O)CC2)C1C(=O)Nc1ccc(C(=O)O)cc1` (racemic) [Example 215] gave a pKi (substrate S-2366, Table 1) greater than 8.30.

Molecule `O=C(Nc1ccc2cn[nH]c2c1)C1c2cccc(N3CCNCC3)c2CCN1C(=O)/C=C/c1c(-n2cnnn2)ccc(Cl)c1F` (stereo not shown) [Example 11] had a pKi under setting [1] greater than 8.30.

`O=C(O)c1ccc(NC(=O)C2c3cccc(N4CCCNCC4)c3CCN2C(=O)C=Cc2c(-n3cnnn3)ccc(Cl)c2F)cc1` (stereo not shown) [Example 260] had a pKi under setting [1] greater than 8.30.

`CC1(O)CCN(c2cccc3c2CCN(C(=O)C=Cc2c(-n4cnnn4)ccc(Cl)c2F)C3C(=O)Nc2ccc(C(=O)O)cc2)CC1` (stereo not shown) [Example 268] had a pKi under setting [1] greater than 8.30.

The molecule `COC1CCN(c2cccc3c2CCN(C(=O)/C=C/c2c(-n4cnnn4)ccc(Cl)c2F)[C@@H]3C(=O)Nc2ccc(C(=O)O)cc2)CC1` [Example 151] had a pKi under setting [1] greater than 8.30.

For `O=C(O)c1ccc(NC(=O)C2c3cccc(N4CCNCC4)c3CCN2C(=O)C=Cc2c(-n3cnnn3)ccc(Cl)c2F)cc1` (stereo not shown) [Example 12], the pKi under setting [1] is 8.00 to 8.30.

Under “substrate S-2366, Table 1”, `O=C(Nc1ccc(F)cc1)C1c2cccc(N3CCC(N4CCCC4)CC3)c2CCN1C(=O)C=Cc1c(-n2cnnn2)ccc(Cl)c1F` (stereo not shown) [Example 90] had a pKi of 6.50.

Under setting [1], `O=C(O)c1ccc(NC(=O)C2c3cccc(N4CCC(N5CCCC5)CC4)c3CCN2C(=O)/C=C/c2c(C(F)(F)F)ccc(Cl)c2F)cc1` (racemic) [Example 176] showed a pKi greater than 8.30.

The molecule `O=C(Nc1ccc(Cl)cc1)C1c2cccc(N3CCC(N4CCCC4)CC3)c2CCN1C(=O)/C=C/c1c(-n2cnnn2)ccc(Cl)c1F` (racemic) [Example 104] showed a pKi under setting [1] greater than 8.30.

On to `CCOC(=O)c1ccc(NC(=O)[C@@H]2c3cccc(N4CCOCC4)c3CC(C)(C)N2C(=O)/C=C/c2c(-n3cnnn3)ccc(Cl)c2F)cc1` [Example 197], for which, under setting [1], the pKi was 8.00 to 8.30.

Turning to `CCOC(=O)c1ccc(NC(=O)[C@H]2c3cccc(N4CCOCC4)c3CC(C)(C)N2C(=O)/C=C/c2c(-n3cnnn3)ccc(Cl)c2F)cc1` [Example 198], the pKi (substrate S-2366, Table 1) is 5.24.

The molecule `NCc1ccc(Cl)cc1/C=C/C(=O)N1CCc2c(cccc2N2CCNCC2)C1C(=O)Nc1ccc(C(=O)O)cc1` (stereo not shown) [Example 32, (E)-4-(2-(3-(2-(Aminomethyl)-5-chlorophenyl)acryloyl)-5-(piperazin-1-yl)-1,2,3,4-tetrahydroisoquinoline-1-carboxamido)benzoic acid, tri TFA Salt] had a pKi under setting [1] of 6.30 to 7.00.

In the case of `O=C(O)c1ccc(NC(=O)C2c3cccc(N4CCC(F)CC4)c3CCN2C(=O)C=Cc2c(-n3cnnn3)ccc(Cl)c2F)cc1` (stereo not shown) [Example 270], the pKi under setting [1] is greater than 8.30.

`CN(C)CCN1CCN(c2cccc3c2CCN(C(=O)/C=C/c2c(-n4cnnn4)ccc(Cl)c2F)C3C(=O)Nc2ccc(C(=O)O)cc2)CCC1=O` (racemic) [Example 263] gave a pKi under setting [1] greater than 8.30.

Under setting [1], `CN1CCN(c2cccc3c2CCN(C(=O)C=Cc2c(-n4cnnn4)ccc(Cl)c2F)C3C(=O)Nc2ccc(C(=O)O)cc2)CC1` (stereo not shown) [compound 30] gave a pKi of 6.30 to 7.00.

Take `CC(=O)N1CCN(c2cccc3c2CC(C)(C)N(C(=O)/C=C/c2c(-n4cnnn4)ccc(Cl)c2F)[C@@H]3C(=O)Nc2ccc(C(=O)O)cc2)CC1` [Example 204]: the pKi under setting [1] is greater than 8.30.

Turning to `CC(C)(C)OC(=O)c1ccc(NC(=O)[C@@H]2c3cccc(N4CCOCC4=O)c3CCN2C(=O)/C=C/c2c(-n3cnnn3)ccc(Cl)c2F)cc1` [Example 50], the pKi under setting [1] was 6.30 to 7.00.

The molecule `O=C(NC1CCCNC1)C1c2cccc(N3CCC(N4CCCC4)CC3)c2CCN1C(=O)C=Cc1c(-n2cnnn2)ccc(Cl)c1F` (mixture of isomers) [Example 237] showed a pKi (substrate S-2366, Table 1) of 5.34.

Under setting [1], `CC(C)(C)OC(=O)CCNC(=O)C1c2cccc(N3CCC(N4CCCC4)CC3)c2CCN1C(=O)/C=C/c1c(-n2cnnn2)ccc(Cl)c1F` (racemic) [Example 230] gave a pKi of 6.30 to 7.00.
